From patent US20060046999A1, “Monocyclic aroylpyridinones as antiinflammatory agents” (priority 2002, published 2006)

Each compound was assayed against p38 map kinase (Homo sapiens, UniProt Q16539) (assay: p38 map kinase SPA [33P] assay). Conditions: 10 μM ATP, 2.5 μM biotinylated MBP substrate, 90 min at 30° C.
Type: biochemical
Excerpt: The assay makes use of the serine/threonine protein kinase SPA [^33P]-assay kit from Amersham Pharmacia Biotech. The assay is a homogeneous technique using SPA technology for the quantification of serine threonine kinase activity.
It is based on the p38 map kinase catalysed transfer of the γ-phosphate group of the [γ-^33P]-ATP to the substrate, biotinylated myelin basic protein (MBP). The resulting [^33P]-labelled biotinylated product is trapped on a PVT SPA bead containing scintillant which has been surface coated with streptavidin.
The beads are allowed to settle to eliminate high background, and therefore only ^33P_labelled product attached to the SPA bead is detected.
The assay is carried out in the presence and absence of test compounds to determine their effect on p38 map kinase activity.
A Test Protocol is as Follows:
• 1. SPA assay kit (Amersham). Components: • Assay buffer (store frozen) • Stop solution (store frozen) • Streptavidin coated SPA beads—reconstitute with 5 ml of PBS (50 mg/ml) (store in fridge) • 2. p38 map kinase enzyme (500 μg/ml)—aliquoted in 1.5 ml • dilute 1:10 to 50 μg/ml • 1 plate: 110 μl (stock 500 μg/ml)+990 μl PBS. • 3. Assay reagent: • for 1 plate: 504 μl assay buffer [500 mM MOPS pH 7.2, 10 μM ATP, 50 mM MgCl2, 25 μM biotinylated myelin basic protein (MBP)] • 2513.4 μl water • 1.1 μl [^33P]-ATP (10 μCi/μl) (on activity date/adjust for activity date) • 4.534 μl X10-2M ATP in water • 4. Stop solution: • for 1 plate: 265.92 μl streptavidin coated beads (50 mg/ml) • 1651.68 μl stop buffer (500 μM ATP, 50 mM EDTA, 1% Triton X-100) • 7084.32 μl PBS. • 1. Add 10 μl compound dilutions (5× final conc.) to test wells • 2. Add 10 μl 12.5% DMSO to control/blank wells • 3. Add 10 μl enzyme (50 μg/ml)—final conc. 500 ng/well • 4. Add 10 μl PBS to blank wells • 5. Add 30 μl of assay reagent to each well (final conc. 10 μM ATP, 2.5 μM substrate) • 6. Mix well on plate shaker • 7. Incubate 90 min (30° C.) • 8. Add 75 μl of stop solution to each well (final conc. 55 μM ATP) • 9. Spin plate: 3 min/1600 rpm/20° C. (alternatively leave to settle overnight) • 10. Read in Microbeta, Protocol SPA paralux 3.

Sequence of p38 map kinase (Q16539 whole entry): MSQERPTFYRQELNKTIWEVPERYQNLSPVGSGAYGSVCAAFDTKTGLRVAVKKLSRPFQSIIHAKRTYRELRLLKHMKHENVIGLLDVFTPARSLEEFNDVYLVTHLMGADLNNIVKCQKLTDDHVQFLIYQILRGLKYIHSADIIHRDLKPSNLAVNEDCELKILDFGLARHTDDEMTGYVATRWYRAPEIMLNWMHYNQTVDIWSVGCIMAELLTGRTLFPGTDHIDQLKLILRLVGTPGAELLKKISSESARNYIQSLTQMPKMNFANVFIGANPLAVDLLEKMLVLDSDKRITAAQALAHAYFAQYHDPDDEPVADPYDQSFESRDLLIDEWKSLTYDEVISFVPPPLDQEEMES

Row | Structure (SMILES) | IC50 [nM]
1 | O=C(c1ccccc1)c1ccc(=O)[nH]c1NCC1CCCCC1 [Example 15, 5-Benzoyl-6-[(cyclohexylmethyl)amino]-2(1H)-pyridinone] | 4050
2 | COc1ccc(-n2c(N)c(C(=O)c3ccccc3)ccc2=O)cc1 [Example 4, 6-Amino-5-benzoyl-1-(4-methoxyphenyl)-2(1H)-pyridinone] | 299
3 | Cc1ccc(-n2c(N)c(C(=O)c3ccccc3)ccc2=O)cc1 [Example 9, 6-amino-5-benzoyl-1-(4-methylphenyl)-2(1H)-pyridinone] | 209
4 | Nc1c(C(=O)c2ccccc2)ccc(=O)n1-c1ccccc1 [Example 6, 6-Amino-5-benzoyl-1-phenyl-2(1H)-pyridinone] | 202
5 | COc1ccc(-n2c(N)c(C(=O)c3ccc(F)cc3)ccc2=O)c(OC)c1 [Example 20, 6-Amino-1-(2,4-dimethoxyphenyl)-5-(4-fluorobenzoyl)-2(1H)-pyridinone] | 127
6 | O=C(c1ccccc1)c1ccc(=O)n(Cc2ccccc2)c1NCc1ccccc1 [Example 2, 5-Benzoyl-1-benzyl-6-(benzylamino)-2(1H)-pyridinone] | 325
7 | O=C(c1ccccc1)c1ccc(=O)[nH]c1NC1CCCCC1 [Example 5, 5-Benzoyl-6-(cyclohexylamino)-2(1H)-pyridinone] | 1290
8 | CC(C)C(Nc1c(C(=O)c2ccccc2)ccc(=O)n1C)C(C)C [Example 14, 5-Benzoyl-6-[(1-isopropyl-2-methylpropyl)amino]-1-methyl-2(1H)-pyridinone] | 1880
